Square brackets hold non-standard residues; d marks the D form. Peptide text beside a SMILES is read from it. MeBmt = C/C=C/C[C@@H](C)[C@@H](O)[C@H](NC)C(=O)O; NEtVal = CCN[C@H](C(=O)O)C(C)C; NMeL = CN[C@@H](CC(C)C)C(=O)O; NMeV = CN[C@H](C(=O)O)C(C)C; dHiv = CC(C)[C@@H](O)C(=O)O; dNMeA = CN[C@H](C)C(=O)O; Abu = CC[C@H](N)C(=O)O
Experiments:
[1] = Cytostatic/cytotoxic effect, MTT (MTS) assay in Huh 9-13 cells; assay type: cell-based; conditions: human, Huh 9-13 cells containing the HCV genotype 1b Con1 replicon, metabolic activity reduced to 50% of untreated cells
From the text: Assays used Huh 9-13 containing the hepatitis C virus genotype 1b Con1 replicon (Lohmann et al. 2001. J. Virol. 75:1437-1449; and Lohmann et al. 1999. Science. 285:110-113). Cells were sub-cultured in cell growth medium DMEM supplemented with 10% FCS, 1% non-essential amino acids, 1% penicillin/streptomycin and 2% Geneticin (Invitrogen) at a ratio of 1:4-1:5 and grown for 3-4 days in 75 cm^2 tissue culture flasks (Techno Plastic Products), were harvested and seeded in assay medium (DMEM, 10% FCS, 1% non-essential amino acids, 1% penicillin/streptomycin) at a density of 5 000 cells/well (100 μl/well) in 96-well tissue culture microtiter plates (Falcon, Beckton Dickinson) for evaluation of cytostatic/cytotoxic and antiviral effect. The microtiter plates were incubated overnight (37° C., 5% CO2, 95-99% relative humidity), yielding a non-confluent cell monolayer.
Cell density and cytostatic effects were estimated in parallel cultures in regular 96-well plates (Beckton-Dickinson) using the MTT assay (CellTiter 96 AQueous Non-Radioactive Cell Proliferation Assay, Promega). In this assay, 3-(4,5-dimethyl-thiazol-2-yl)-5-(3-carboxymethoxy-phenyl)-2-(4-sulfophenyl)-2H-tetrazolium (MTS) is bioreduced to a formazan that is quantified at 498 nm in a plate reader. Formazan production is directly correlated with number of life cells. Absorbance was measured at a wavelength of 498 nm (Safire^2, Tecan) and optical densities (OD values) were converted to percentage of untreated controls.
The compounds were dissolved in DMSO at a concentration of 4 mmole/L. Stock solutions were immediately used to set up the experiments. The compounds were tested at 24 different concentrations ranging from 0.0001 μmole/L to 100 μmole/L. The highest concentration of DMSO in the assay was determined to be 2.5% (at 100 μM final concentration of the compound). During the assay setup, the DMSO percentage decreased concomitantly with decrease in concentration of the compound.
The EC50 (value derived from the dose-response curve) represents the concentration at which 50% inhibition of viral replication is observed. The CC50 (value derived from the dose-response curve) represents the concentration at which the metabolic activity of the cells is reduced to 50% of the metabolic activity of untreated cells.
Results from these experiments permitted calculation of EC50±SD (standard deviation or Std. Dev.), which is the effective concentration required to inhibit HCV replicon replication by 50%, and of CC50±SD (whenever possible), which is the concentration required that inhibits the proliferation of exponentially growing cells by 50%. EC50 and CC50±SD values were calculated respectively as the median of all the EC50, or CC50 values derived from the 3 individual dose-response curves. The selectivity index (SI), indicative of the therapeutic window of the compound was calculated as the ratio between CC50 and EC50.

[2] = target: T1, sodium-taurocholate cotransporting polypeptide (NTCP) (Homo sapiens, UniProt Q14973); experiment: NTCP inhibition, taurocholate uptake in CHO cells; assay type: in vitro ADME; conditions: for NTCP IC50 / IC50: probe taurocholate, CHO cells; for NTCP fold Debio 025: IC50 ratio compared to Debio 025
T1 sequence (Q14973 1-349): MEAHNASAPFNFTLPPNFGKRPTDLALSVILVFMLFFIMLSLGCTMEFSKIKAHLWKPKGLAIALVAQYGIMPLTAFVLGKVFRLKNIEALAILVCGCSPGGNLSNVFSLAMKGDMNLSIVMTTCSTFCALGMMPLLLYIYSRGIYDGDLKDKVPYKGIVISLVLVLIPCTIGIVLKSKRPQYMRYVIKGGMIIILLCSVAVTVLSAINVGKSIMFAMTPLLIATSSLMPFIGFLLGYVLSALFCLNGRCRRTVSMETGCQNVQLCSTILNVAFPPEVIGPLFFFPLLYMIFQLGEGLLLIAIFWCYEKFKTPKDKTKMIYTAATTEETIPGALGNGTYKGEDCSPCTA

[3] = system: Concanavalin-A-induced T-cell proliferation; experiment: Concanavalin-A-induced T-cell proliferation assay (immunosuppression); assay type: cell-based; conditions: inhibition of Concanavalin-A-induced T-cell proliferation
Experimental: To determine whether the cycloundecadepsipepide compounds of the present invention have a non-immunosuppression activity, experiments were carried out that compared the dose-dependent inhibition of Concanavalin-A-induced T-cell proliferation (see Table 2).
The method of the assays were performed as described by Dayton et al. (1992. Mol. Pharmacol. 41. 671-676) and Mishell et al. (1980. Cell proliferation in selected methods in cellular immunology, V, XXIX, W.H. Freeman Co., San Francisco, Calif. 153-160).

[4] = system: hepatitis C virus genotype 1b Con1 replicon; experiment: HCV replicon assay, replicon RNA by RT-qPCR in Huh 9-13 cells; assay type: cell-based; conditions: 50% inhibition of HCV replicon replication, 3 dose-response curves
Experimental: For the evaluation of antiviral effects, assay medium was aspirated and the plates with dry monolayer were stored at −80° C. awaiting extraction. Following thawing of the plates at room temperature, the cell monolayer was lysed with 100 μl of cell-to-cDNA lysis buffer (Invitrogen). Lysis of the cells was allowed to proceed for 10 min at room temperature after which all liquid was transferred to a PCR plate (Axygen). The PCR plate was incubated for 15 min at 75° C. […] The lysate was diluted 1:2 with RNase/DNase-free water, after which 5 μl was transferred to the real-time PCR plate (Applied Biosystems).
Replicon RNA content was quantified using a real-time quantitative one-step RT-PCR method (RT-qPCR): Low Rox One-Step RT-qPCR master mix, Abgene). […] The fluorogenic probe was 5′-[sequence]-3′. The analysis of the samples were performed using a SDS7500F (Applied Biosystems, standard thermocycling profile: 30 min at 48° C., 10 min at 95° C., 40 cycles of 15 sec at 95° C. and 1 min at 60° C.) after which replicon RNA quantities were converted to percentage of untreated controls.

[5] = target: organic anion transporting polypeptide 1B1 (OATP1B1) (Homo sapiens, UniProt Q9Y6L6)
organic anion transporting polypeptide 1B1 (OATP1B1), sequence (Q9Y6L6 whole entry): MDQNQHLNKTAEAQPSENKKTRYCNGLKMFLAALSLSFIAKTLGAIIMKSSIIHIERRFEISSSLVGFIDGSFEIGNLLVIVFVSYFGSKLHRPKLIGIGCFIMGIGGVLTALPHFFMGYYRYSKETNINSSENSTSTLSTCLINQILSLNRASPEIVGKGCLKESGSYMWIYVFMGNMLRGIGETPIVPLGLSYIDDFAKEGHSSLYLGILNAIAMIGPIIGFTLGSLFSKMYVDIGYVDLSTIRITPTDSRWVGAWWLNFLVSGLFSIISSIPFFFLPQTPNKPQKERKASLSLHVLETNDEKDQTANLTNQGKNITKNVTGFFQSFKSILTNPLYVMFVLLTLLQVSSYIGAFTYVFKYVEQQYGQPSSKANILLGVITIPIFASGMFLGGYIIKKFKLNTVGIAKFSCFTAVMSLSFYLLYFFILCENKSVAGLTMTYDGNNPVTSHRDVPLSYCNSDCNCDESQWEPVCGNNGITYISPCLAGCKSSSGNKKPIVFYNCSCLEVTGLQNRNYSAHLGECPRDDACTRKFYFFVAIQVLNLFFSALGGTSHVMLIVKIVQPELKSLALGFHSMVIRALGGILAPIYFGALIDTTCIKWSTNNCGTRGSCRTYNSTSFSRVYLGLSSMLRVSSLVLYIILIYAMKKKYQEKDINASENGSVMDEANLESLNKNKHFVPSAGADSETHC
Experimental: (§1) To determine whether the cycloundecadepsipeptide compounds of the present invention interact with hepatic transporters, experiments were carried out that compared the concentration-dependent inhibition towards the multidrug resistance associated protein 2 (MRP2), the organic anion transporting polypeptide 1B1 (OATP1B1), the bile salt export pump (BSEP) and the sodium-taurocholate cotransporting polypeptide (NTCP). These transporters are involved in the hepatobiliary circulation of endogenous compounds such as bile salts or bilirubin (for a review, see C. Pauli-Magnus et al, J. Hepatology, 2005, 43:342-357). Some of them also contribute to the elimination of xenobiotics.
OATP1B1 and NTCP assays were performed with Chinese hamster ovary (CHO) cells expressing these human uptake transporters. The amount of the transported probe substrate (estrone-3-sulfate and taurocholate for OATP1B1 and NTCP, respectively) was determined by liquid scintillation or fluorescent photometry after cell lysis.
(§2) The IC50 (defined as the concentration required for inhibiting the transport of the probe substrate by 50%, half maximal inhibitory concentration) of the compounds was derived from the concentration-response curve and compared to the IC50 of Debio 025 (IC50 ratio expressed as “fold Debio 025” in the tables).

[6] = target: bile salt export pump (BSEP) (Homo sapiens, UniProt O95342); conditions: for BSEP fold Debio 025: IC50 ratio compared to Debio 025
bile salt export pump (BSEP), sequence (O95342 whole entry): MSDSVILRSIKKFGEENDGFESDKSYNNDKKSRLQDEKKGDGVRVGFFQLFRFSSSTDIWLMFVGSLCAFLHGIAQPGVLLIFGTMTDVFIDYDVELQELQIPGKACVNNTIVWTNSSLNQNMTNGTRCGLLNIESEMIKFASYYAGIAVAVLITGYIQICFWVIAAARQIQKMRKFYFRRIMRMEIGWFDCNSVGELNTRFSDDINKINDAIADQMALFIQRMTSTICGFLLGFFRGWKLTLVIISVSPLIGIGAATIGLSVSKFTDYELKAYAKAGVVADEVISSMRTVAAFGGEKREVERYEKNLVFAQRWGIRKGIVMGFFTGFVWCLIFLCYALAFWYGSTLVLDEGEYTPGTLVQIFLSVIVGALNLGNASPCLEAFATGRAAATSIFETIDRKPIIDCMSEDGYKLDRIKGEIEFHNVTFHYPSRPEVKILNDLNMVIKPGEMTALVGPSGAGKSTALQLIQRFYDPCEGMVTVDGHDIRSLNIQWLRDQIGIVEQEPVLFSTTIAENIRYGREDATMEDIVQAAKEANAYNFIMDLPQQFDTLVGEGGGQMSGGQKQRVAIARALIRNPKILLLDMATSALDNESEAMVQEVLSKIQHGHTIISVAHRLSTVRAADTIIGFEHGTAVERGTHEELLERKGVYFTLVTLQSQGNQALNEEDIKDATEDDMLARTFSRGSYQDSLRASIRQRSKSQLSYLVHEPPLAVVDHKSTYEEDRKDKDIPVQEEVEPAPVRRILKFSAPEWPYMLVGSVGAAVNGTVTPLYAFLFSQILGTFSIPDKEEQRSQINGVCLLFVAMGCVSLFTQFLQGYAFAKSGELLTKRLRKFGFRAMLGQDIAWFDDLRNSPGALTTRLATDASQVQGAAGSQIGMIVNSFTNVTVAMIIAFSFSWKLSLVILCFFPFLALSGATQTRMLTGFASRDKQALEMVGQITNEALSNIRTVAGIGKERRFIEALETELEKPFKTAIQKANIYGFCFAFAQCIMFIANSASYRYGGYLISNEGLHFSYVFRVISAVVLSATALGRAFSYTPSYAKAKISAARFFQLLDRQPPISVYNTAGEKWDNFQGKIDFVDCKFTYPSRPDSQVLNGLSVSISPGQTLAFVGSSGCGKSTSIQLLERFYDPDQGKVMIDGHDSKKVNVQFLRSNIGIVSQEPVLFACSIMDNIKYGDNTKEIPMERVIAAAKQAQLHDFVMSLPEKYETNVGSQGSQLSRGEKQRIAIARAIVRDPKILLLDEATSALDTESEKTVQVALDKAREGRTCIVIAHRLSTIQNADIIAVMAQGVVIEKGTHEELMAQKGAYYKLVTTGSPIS
Experimental: as §1
(§3) MRP2 and BSEP were expressed by SOLVO Biotechnology in Spodoptera frugiperda (Sf9) ovarian cells, by infecting the insect cells with a recombinant baculovirus. The inhibition of the transport of the radioactive probe substrates (estradiol-17-beta-glucuronide and taurocholate for MRP2 and BSEP, respectively) into inside-out membrane vesicles, containing the transporter, was measured by scintillation counting.
as §2

[7] = target: multidrug resistance associated protein 2 (MRP2) (Homo sapiens, UniProt Q92887)
multidrug resistance associated protein 2 (MRP2), sequence (Q92887 whole entry): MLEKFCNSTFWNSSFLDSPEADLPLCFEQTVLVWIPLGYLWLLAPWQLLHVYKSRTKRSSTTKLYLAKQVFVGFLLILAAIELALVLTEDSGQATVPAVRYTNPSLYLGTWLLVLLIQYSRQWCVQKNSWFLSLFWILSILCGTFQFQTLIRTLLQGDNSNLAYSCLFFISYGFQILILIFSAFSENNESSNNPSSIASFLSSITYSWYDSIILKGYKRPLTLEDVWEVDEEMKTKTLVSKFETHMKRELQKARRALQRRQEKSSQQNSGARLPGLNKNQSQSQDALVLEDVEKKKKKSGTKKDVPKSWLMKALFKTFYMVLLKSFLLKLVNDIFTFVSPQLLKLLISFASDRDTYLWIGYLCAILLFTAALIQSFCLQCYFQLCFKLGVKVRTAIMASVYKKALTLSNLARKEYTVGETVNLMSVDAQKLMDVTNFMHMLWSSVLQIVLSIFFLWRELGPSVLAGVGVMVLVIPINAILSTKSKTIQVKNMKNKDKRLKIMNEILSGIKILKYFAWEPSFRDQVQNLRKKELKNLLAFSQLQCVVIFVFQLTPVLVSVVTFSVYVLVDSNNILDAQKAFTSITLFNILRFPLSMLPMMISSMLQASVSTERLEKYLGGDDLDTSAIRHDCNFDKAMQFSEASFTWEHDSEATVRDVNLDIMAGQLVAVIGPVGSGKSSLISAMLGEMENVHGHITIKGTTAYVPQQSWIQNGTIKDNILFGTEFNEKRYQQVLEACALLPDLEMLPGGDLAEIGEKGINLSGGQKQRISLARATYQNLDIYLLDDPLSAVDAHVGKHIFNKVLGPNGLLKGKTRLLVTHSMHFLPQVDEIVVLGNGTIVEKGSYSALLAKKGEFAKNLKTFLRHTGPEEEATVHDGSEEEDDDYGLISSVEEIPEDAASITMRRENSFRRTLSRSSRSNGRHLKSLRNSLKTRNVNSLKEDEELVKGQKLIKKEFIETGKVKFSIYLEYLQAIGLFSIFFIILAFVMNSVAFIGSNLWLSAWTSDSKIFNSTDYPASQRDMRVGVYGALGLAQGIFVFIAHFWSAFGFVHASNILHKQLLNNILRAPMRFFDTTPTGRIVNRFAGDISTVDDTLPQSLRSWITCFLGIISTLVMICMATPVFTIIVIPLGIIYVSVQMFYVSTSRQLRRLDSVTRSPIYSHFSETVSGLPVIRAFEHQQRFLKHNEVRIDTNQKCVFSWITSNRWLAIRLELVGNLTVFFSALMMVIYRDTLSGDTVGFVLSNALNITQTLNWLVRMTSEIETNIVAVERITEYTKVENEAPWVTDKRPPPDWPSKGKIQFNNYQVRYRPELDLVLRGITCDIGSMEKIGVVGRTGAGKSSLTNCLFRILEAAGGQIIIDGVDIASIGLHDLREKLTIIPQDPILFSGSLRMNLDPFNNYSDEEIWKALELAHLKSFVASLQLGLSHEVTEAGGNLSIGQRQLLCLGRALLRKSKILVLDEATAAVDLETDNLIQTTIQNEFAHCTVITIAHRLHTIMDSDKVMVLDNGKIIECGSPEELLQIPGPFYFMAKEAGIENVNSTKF
Experimental: as §1, §3, §2

SMILES	CC50 [1] [µM]	NTCP IC50 [2]	IC50 [3] [µM]	EC50 [4] [µM]	IC50 [5] [µM]	OATP1B fold Debio 025 [5]	IC50 [6] [µM]	BSEP fold Debio 025 [6]	MRP2 IC50 [7]	NTCP fold Debio 025 [2]	IC50 [2] [µM]
C/C=C/C[C@@H](C)[C@@H](O)[C@H]1C(=O)N[C@@H](C(C)C)C(=O)N(C)[C@H](C)C(=O)N(C)[C@@H](C(C)C)C(=O)N[C@@H](CC(C)C)C(=O)N(C)[C@@H](CC(C)C)C(=O)NCC(=O)O[C@H](C(C)C)C(=O)N(C)[C@@H](CC(C)C)C(=O)N[C@@H](CC(C)C)C(=O)N(C)[C@@H](C(C)C)C(=O)N1C [(If), cyclo-(MeBmt-Val-D-MeAla-MeVal-Leu-MeLeu-Gly-D-Hiv-MeLeu-Leu-MeVal)] (cyclo(G[dHiv][NMeL]L[NMeV][MeBmt]V[dNMeA][NMeV]L[NMeL]))	81.8	n.i.	7.73	0.025	15	0.03	0.48	0.50	n.i.		
C/C=C/C[C@@H](C)[C@@H](O)[C@H]1C(=O)N[C@@H](CC)C(=O)N(C)[C@H](C)C(=O)N(C)[C@@H](C(C)C)C(=O)N[C@@H](CC(C)C)C(=O)N(C)[C@@H](CC(C)C)C(=O)N[C@@H](C)C(=O)O[C@H](C(C)C)C(=O)N(C)[C@@H](CC(C)C)C(=O)N[C@@H](CC(C)C)C(=O)N(C)[C@@H](C(C)C)C(=O)N1C [(Id), cyclo-(MeBmt-Abu-D-MeAla-MeVal-Leu-MeLeu-Ala-D-Hiv-MeLeu-Leu-MeVal)] (cyclo(A[dHiv][NMeL]L[NMeV][MeBmt][Abu][dNMeA][NMeV]L[NMeL]))	44.4		1.44	0.025	7.9	0.05	0.57	0.42	n.i.	1.2	2.5
C/C=C/C[C@@H](C)[C@@H](O)[C@H]1C(=O)N[C@@H](CC)C(=O)N(C)[C@H](C)C(=O)N(C)[C@@H](C(C)C)C(=O)N[C@@H](CC(C)C)C(=O)N(C)[C@@H](CC(C)C)C(=O)NCC(=O)O[C@H](C(C)C)C(=O)N(C)[C@@H](CC(C)C)C(=O)N[C@@H](CC(C)C)C(=O)N(C)[C@@H](C(C)C)C(=O)N1C [(Ia), cyclo-(MeBmt-Abu-D-MeAla-MeVal-Leu-MeLeu-Gly-D-Hiv-MeLeu-Leu-MeVal)] (cyclo([Abu][dNMeA][NMeV]L[NMeL]G[dHiv][NMeL]L[NMeV][MeBmt]))	60.1	n.i.	2	0.034	18	0.02	0.4	0.60	n.i.		
C/C=C/C[C@@H](C)[C@@H](O)[C@H]1C(=O)N[C@@H](CC)C(=O)N(C)[C@H](C)C(=O)N(CC)[C@@H](C(C)C)C(=O)N[C@@H](CC(C)C)C(=O)N(C)[C@@H](CC(C)C)C(=O)N[C@@H](C)C(=O)O[C@H](C(C)C)C(=O)N(C)[C@@H](CC(C)C)C(=O)N[C@@H](CC(C)C)C(=O)N(C)[C@@H](C(C)C)C(=O)N1C [(Ib), cyclo-(MeBmt-Abu-D-MeAla-EtVal-Leu-MeLeu-Ala-D-Hiv-MeLeu-Leu-MeVal)] (cyclo(A[dHiv][NMeL]L[NMeV][MeBmt][Abu][dNMeA][NEtVal]L[NMeL]))	52.3		9.44	0.037	6.2	0.07	0.15	1.6	n.i.	0.05	65

Source: US8501683B2, “Cycloundecadepsipeptide compounds and use of said compounds as a medicament” (priority 2008, dated 2013)
